Experimental data reported in patent US20250171437A1 (Agios Pharmaceuticals,Inc., priority 2022, published 2025).

These compounds were tested against T1, human PAH with the R408W mutation (A375 R408W cells) (Homo sapiens, UniProt P00439, R408W) (assay: Cell Based Phenylalanine Flux Assay). Details: A375 R408W cells; 24 hrs with compound, then 20 μM sepiapterin and 800 μM 13C9,15N-Phenylalanine for 4 hours; 13C-Tyrosine by LC-MS; average where tested multiple times.
T1 construct: expressed in transfected cells
T1 sequence (P00439 1-452 R408W): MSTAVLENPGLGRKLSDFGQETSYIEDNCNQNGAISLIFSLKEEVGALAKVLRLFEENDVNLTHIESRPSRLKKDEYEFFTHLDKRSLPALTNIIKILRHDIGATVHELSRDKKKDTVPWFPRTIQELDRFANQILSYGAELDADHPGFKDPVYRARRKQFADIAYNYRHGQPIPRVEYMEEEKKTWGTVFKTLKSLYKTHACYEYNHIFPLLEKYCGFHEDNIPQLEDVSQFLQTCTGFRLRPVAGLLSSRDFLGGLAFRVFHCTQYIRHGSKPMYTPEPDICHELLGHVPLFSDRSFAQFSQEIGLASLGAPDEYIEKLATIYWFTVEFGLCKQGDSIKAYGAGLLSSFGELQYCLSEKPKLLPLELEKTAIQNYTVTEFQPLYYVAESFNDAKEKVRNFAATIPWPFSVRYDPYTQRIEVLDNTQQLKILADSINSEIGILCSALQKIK
In short: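 A375 cells stably expressing human PAH R408W treated 24 h at 37° C with a 10-point 2-fold dose curve in duplicate, 0.5% DMSO. Then 20 μM sepiapterin and 800 μM 13C9,15N-Phe added for 4 h; 13C-Tyr in media measured by LC-MS to give AC50.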

SMILES	AC50
CC(C)(O)c1nc(C2CC2)c(C(=O)N2CCc3[nH]cnc3[C@@H]2c2nc3cc(F)ccc3o2)o1 [Example 558, (R)-(4-cyclopropyl-2-(2-hydroxypropan-2-yl)oxazol-5-yl)(4-(5-fluorobenzo[d]oxazol-2-yl)-6,7-dihydro-1H-imidazo[4,5-c]pyridin-5(4H)-yl)methanone]	1 to 5 µM
C[C@H](O)c1nc(C(F)F)c(C(=O)N2CCc3[nH]cnc3[C@H]2c2nc3ccc(F)cc3o2)o1 [Example 231, (4-(difluoromethyl)-2-((S)-1-hydroxyethyl)oxazol-5-yl)((S)-4-(6-fluorobenzo[d]oxazol-2-yl)-6,7-dihydro-1H-imidazo[4,5-c]pyridin-5(4H)-yl)methanone]	0.5 to 1 µM
CC(C)(O)c1nc(C(F)F)c(C(=O)N2CCc3[nH]cnc3[C@H]2c2nc3c(Cl)cccc3o2)o1 [Example 435, [(4S)-4-(4-chloro-1,3-benzoxazol-2-yl)-1,4,6,7-tetrahydroimidazo[4,5-c]pyridin-5-yl]-[4-(difluoromethyl)-2-(1-hydroxy-1-methyl-ethyl)oxazol-5-yl]methanone]	≤ 0.5 µM
Cc1nn(C)cc1-c1nnc(C(=O)N2CCc3[nH]cnc3[C@@H]2c2nc3cc(F)ccc3o2)o1 [Example 882, (R)-(5-(1,3-dimethyl-1H-pyrazol-4-yl)-1,3,4-oxadiazol-2-yl)(4-(5-fluorobenzo[d]oxazol-2-yl)-6,7-dihydro-1H-imidazo[4,5-c]pyridin-5(4H)-yl)methanone]	1 to 5 µM
O=C(c1ocnc1C(F)(F)F)N1CCc2[nH]cnc2[C@@H]1c1nc2c(F)cccc2o1 [Example 168, (R)-(4-(4-fluorobenzo[d]oxazol-2-yl)-6,7-dihydro-1H-imidazo[4,5-c]pyridin-5(4H)-yl)(4-(trifluoromethyl)oxazol-5-yl)methanone]	1 to 5 µM
COc1ccc2oc([C@@H]3c4nc[nH]c4CCN3C(=O)c3oc(C(C)(C)O)nc3C(F)F)nc2c1 [Example 339, (S)-(4-(difluoromethyl)-2-(2-hydroxypropan-2-yl)oxazol-5-yl)(4-(5-methoxybenzo[d]oxazol-2-yl)-6,7-dihydro-1H-imidazo[4,5-c]pyridin-5(4H)-yl)methanone]	0.5 to 1 µM
CC(C)(O)c1nc(Cl)c(C(=O)N2CCc3[nH]cnc3[C@@H]2c2nc3cccc(F)c3o2)o1 [Example 271, (R)-(4-chloro-2-(2-hydroxypropan-2-yl)oxazol-5-yl)(4-(7-fluorobenzo[d]oxazol-2-yl)-6,7-dihydro-1H-imidazo[4,5-c]pyridin-5(4H)-yl)methanone]	1 to 5 µM
O=C(c1oc(C2(O)CC2)nc1C(F)F)N1CCc2[nH]cnc2[C@@H]1c1nc2ccc(F)cc2o1 [Example 238, (R)-(4-(difluoromethyl)-2-(1-hydroxycyclopropyl)oxazol-5-yl)(4-(6-fluorobenzo[d]oxazol-2-yl)-6,7-dihydro-1H-imidazo[4,5-c]pyridin-5(4H)-yl)methanone]	1 to 5 µM
CNc1cn2ncc(C(=O)N3CCc4[nH]cnc4[C@H]3c3nc4cc(F)ccc4o3)c2cc1Cl [Example 205, (S)-(5-chloro-6-(methylamino)pyrazolo[1,5-a]pyridin-3-yl)(4-(5-fluorobenzo[d]oxazol-2-yl)-6,7-dihydro-1H-imidazo[4,5-c]pyridin-5(4H)-yl)methanone]	≤ 0.5 µM
O=C(c1cnc(-c2ccccn2)o1)N1CCc2[nH]cnc2[C@H]1c1nc2cc(F)ccc2o1 [Example 11, (S)-(4-(5-fluorobenzo[d]oxazol-2-yl)-6,7-dihydro-1H-imidazo[4,5-c]pyridin-5(4H)-yl)(2-(pyridin-2-yl)oxazol-5-yl)methanone]	0.5 to 1 µM
O=C(CCc1nccs1)N1CCc2[nH]cnc2[C@H]1c1nc2c(F)cccc2o1 [Example 397, (S)-1-(4-(4-fluorobenzo[d]oxazol-2-yl)-6,7-dihydro-1H-imidazo[4,5-c]pyridin-5(4H)-yl)-3-(thiazol-2-yl)propan-1-one]	0.5 to 1 µM
CC(C)(O)c1nc(C(F)F)c(C(=O)N2CCc3[nH]cnc3[C@H]2c2nc3c(C(F)(F)F)cccc3o2)o1 [Example 463, (S)-(4-(difluoromethyl)-2-(2-hydroxypropan-2-yl)oxazol-5-yl)(4-(4-(trifluoromethyl)benzo[d]oxazol-2-yl)-6,7-dihydro-1H-imidazo[4,5-c]pyridin-5(4H)-yl)methanone]	≤ 0.5 µM
Cn1ccc(-c2nnc(C(=O)N3CCc4[nH]cnc4[C@@H]3c3nc4cccc(F)c4o3)o2)n1 [Example 338, (R)-(4-(7-fluorobenzo[d]oxazol-2-yl)-6,7-dihydro-1H-imidazo[4,5-c]pyridin-5(4H)-yl)(5-(1-methyl-1H-pyrazol-3-yl)-1,3,4-oxadiazol-2-yl)methanone]	0.5 to 1 µM
CC(F)(F)c1ncoc1C(=O)N1CCc2[nH]cnc2[C@H]1c1nc2c(F)cccc2o1 [Example 651, (S)-(4-(1,1-difluoroethyl)oxazol-5-yl)(4-(4-fluorobenzo[d]oxazol-2-yl)-6,7-dihydro-1H-imidazo[4,5-c]pyridin-5(4H)-yl)methanone]	≤ 0.5 µM
Cc1ccc2oc([C@H]3c4nc[nH]c4CCN3C(=O)c3oc(-c4ccccn4)nc3C(F)F)nc2c1 [Example 738, (R)-(4-(difluoromethyl)-2-(pyridin-2-yl)oxazol-5-yl)(4-(5-methylbenzo[d]oxazol-2-yl)-6,7-dihydro-1H-imidazo[4,5-c]pyridin-5(4H)-yl)methanone]	1 to 5 µM
O=C(c1nnc(-c2ccn(C(F)F)n2)o1)N1CCc2[nH]cnc2[C@H]1c1nc2ccccc2o1 [Example 846, (S)-(4-(benzo[d]oxazol-2-yl)-6,7-dihydro-1H-imidazo[4,5-c]pyridin-5(4H)-yl)(5-(1-(difluoromethyl)-1H-pyrazol-3-yl)-1,3,4-oxadiazol-2-yl)methanone]	≤ 0.5 µM
O=C(c1ocnc1C(F)F)N1CCc2[nH]cnc2[C@@H]1c1nc2cc(Br)ccc2o1 [Example 150, (R)-(4-(5-bromobenzo[d]oxazol-2-yl)-6,7-dihydro-1H-imidazo[4,5-c]pyridin-5(4H)-yl)(4-(difluoromethyl)oxazol-5-yl)methanone]	≤ 0.5 µM
O=C(c1cnco1)N1CCc2[nH]cnc2[C@H]1c1nc2cc(F)cc(F)c2o1 [Example 575, (S)-(4-(5,7-difluorobenzo[d]oxazol-2-yl)-6,7-dihydro-1H-imidazo[4,5-c]pyridin-5(4H)-yl)(oxazol-5-yl)methanone]	1 to 5 µM
Cn1cncc1-c1nc(C(F)(F)F)c(C(=O)N2CCc3[nH]cnc3[C@H]2c2nc3cc(F)ccc3o2)o1 [Example 791, (S)-(4-(5-fluorobenzo[d]oxazol-2-yl)-6,7-dihydro-1H-imidazo[4,5-c]pyridin-5(4H)-yl)(2-(1-methyl-1H-imidazol-5-yl)-4-(trifluoromethyl)oxazol-5-yl)methanone]	0.5 to 1 µM
CC(C)(C#N)c1nc(C(F)F)c(C(=O)N2CCc3[nH]cnc3[C@@H]2c2nc3cc(F)ccc3o2)o1 [Example 160, (R)-2-(4-(difluoromethyl)-5-(4-(5-fluorobenzo[d]oxazol-2-yl)-4,5,6,7-tetrahydro-1H-imidazo[4,5-c]pyridine-5-carbonyl)oxazol-2-yl)-2-methylpropanenitrile]	0.5 to 1 µM
O=C(c1nnc(-c2ccc(F)cc2F)o1)N1CCc2[nH]cnc2[C@@H]1c1nc2cc(F)ccc2o1 [Example 83, (R)-(5-(2,4-difluorophenyl)-1,3,4-oxadiazol-2-yl)(4-(5-fluorobenzo[d]oxazol-2-yl)-6,7-dihydro-1H-imidazo[4,5-c]pyridin-5(4H)-yl)methanone]	1 to 5 µM
CC(C)(O)c1nc(C(F)F)c(C(=O)N2CCc3[nH]cnc3[C@@H]2c2nc3cc(F)ccc3o2)o1 (single isomer, unassigned) [Example 108]	1 to 5 µM
Cn1cc(-c2nnc(C(=O)N3CCc4[nH]cnc4[C@H]3c3nc4ccccc4o3)o2)cn1 [Example 581, (S)-(4-(benzo[d]oxazol-2-yl)-6,7-dihydro-1H-imidazo[4,5-c]pyridin-5(4H)-yl)(5-(1-methyl-1H-pyrazol-4-yl)-1,3,4-oxadiazol-2-yl)methanone]	≤ 0.5 µM
Cc1ncoc1C(=O)N1CCc2[nH]cnc2[C@@H]1c1nc2ccc(F)cc2o1 [Example 598, (R)-(4-(6-fluorobenzo[d]oxazol-2-yl)-6,7-dihydro-1H-imidazo[4,5-c]pyridin-5(4H)-yl)(4-methyloxazol-5-yl)methanone]	1 to 5 µM

Same assay, conditions: A375 cells expressing R408W PAH; 24 hrs with compound, then 20 μM sepiapterin and 800 μM 13C9,15N-Phenylalanine for 4 hours; 13C-Tyrosine by LC-MS; average where tested multiple times

SMILES	AC50
Cc1ccc2oc(C3c4nc[nH]c4CCN3C(=O)c3cnn4cc(CCN(C)C)ccc34)nc2c1 (stereo not shown)	1 to 5 µM
COCc1ccc2c(C(=O)N3CCc4[nH]cnc4C3c3nc4ccc(F)cc4o3)cnn2c1 (stereo not shown)	1 to 5 µM
Cc1nc(-c2cnn(C)c2)oc1C(=O)N1CCc2[nH]cnc2C1c1nc2cc(F)ccc2o1 (stereo not shown)	≥ 5 µM
Cc1cccc2nc(C3c4nc[nH]c4CCN3C(=O)c3nc(C(C)(C)C)nn3C)oc12 (stereo not shown)	1 to 5 µM
CN(C)Cc1ccc2c(C(=O)N3CCc4[nH]cnc4C3c3nc4cc(F)ccc4o3)cnn2c1 (stereo not shown)	1 to 5 µM
COc1cccc2nc(C3c4nc[nH]c4CCN3C(=O)c3nc(C(C)(C)C)nn3C)oc12 (stereo not shown)	1 to 5 µM
CC(C)(O)c1cc(C(=O)N2CCc3[nH]cnc3C2c2nc3c(F)cccc3o2)on1 (stereo not shown)	1 to 5 µM
